This is an account of results in US4837223A, “(S)-alpha-ethyl-2-oxo-1-pyrrolidineacetamide compositions” (UCB Societe Anonyme, priority 1984, dated 1989).

Data set [1] in a line: Protection against hypoxia (mouse), survival in atmosphere of progressively decreasing oxygen. Particulars: for minimal effective dose: Mus musculus, po, read-out: 1st effective dose (increases survival of animals deprived of oxygen, from this dose upwards); for Number of surviving animals, treated: survivors/treated. The format is in vivo, mouse (male, NMRI strain). From the text: I. Protection against hypoxia (mouse)
a. Principle (C. GIURGEA and F. MOURAVIEFF-LESUISSE; Proc. Xth Intern. Congr. of the Coll. Intern. Neuro-psych.-Pergamon Press, Oxford and New York, 1978, p. 1623-1631).
Due to the particular sensitivity of the nervous system to this type of aggression, the results obtained in this test can be interpreted as a measure of the resistance of the central nervous system. Compounds which increase the resistance of the animals to this stress are suitable for the treatment and prevention of hypoxic type aggressions of the central nervous system.
The apparatus consists of an airtight transparent cage 37 cm high, 39 cm deep and 97 cm wide. This 140 liter cage is provided with 60 transparent compartments each 6×10×10 cm, making it possible to separately accomodate 60 mice.
A fan ensures circulation of the atmosphere between the compartments through a grid floor. The cage is equipped with a device for introducing nitrogen at a constant flow rate, and with an orifice communicating with the ambient atmosphere. Male mice (NMRI strain) weighing 20 to 22 g, are kept fasting as from the day before the test. The experiment is effected on the following day, simultaneously on 3 groups of 20 mice; a control group is given water (25 ml/kg) orally, and the other two groups are each given orally a compound to be tested.
25 minutes after the administration, the animals are distributed at random amongst the compartments so that none of the three groups is concentrated in a preferred area of the cage.
30 minutes after administration, the cage is closed and nitrogen is admitted into it at a constant flow rate (7.75 liters of technical grade nitrogen per minute) for about 37 minutes, at which stage the atmosphere contains 3.7% oxygen.
The cage is left closed until the critical moment where no more than 3 survivors are observed among the 20 control animals. At that moment, the cage is opened and atmospheric air admitted into it. A few moments later the survivors in each group of animals are counted.
For each dose of compound to be tested, the experiments are repeated once or twice, and the results pooled to obtain a minimum of 40 (or 60) animals treated per dose and 40 (or 60) corresponding control animals.
For each dose of compound tested, the number of surviving animals among those treated with the compound is compared with the number of surviving animals among the control animals. The difference between these numbers expresses the protective activity of the compound against hypoxia caused by oxygen deprivation. The statistical significance (P) of this difference is evaluated by the Fischer-Yates test.

A short description of data set [2]: Protection against cerebral ischemia (rats), survival after ligature of the 2 common carotids. The format is in vivo, rat (male Wistar). To be noted: for lowest active dose (protects against lethality induced by simultaneous ligature of the two carotids, from this dose upwards): intraperitoneal; for Number of surviving animals, treated: survivors/treated, 24 hours. The method, then:
II. Protection against cerebral ischemia (rats)
a. Principle (C. GIURGEA and F. MOURAVIEFF-LESUISSE; see above under Ia.
Electroencephalographic controls have shown that the ligature of the 2 common carotids in the rat causes a true cerebral ischemia: the electroencephalogram trace flattens and even becomes isoelectric (electric silence).
Male Wistar rats weighing between 250 and 350 g are anesthetized with pentobarbital administered intraperitoneally at a dose of 50 mg/kg (0.5 ml/100 g).
Immediately after the anesthesia, the animals are administered intraperitoneally with an amount of 0.5 ml/100 g, either the compound to be tested dissolved in an isotonic sodium chloride solution (treated animals), or only an isotonic sodium chloride solution or placebo (control animals). About 20 minutes later, the 2 common carotids are exposed and about 10 minutes later ligatured simultaneously. This operation is effected simultaneously on the control animals and the treated animals.
An hour after administration of the compound to be tested or of the placebo, there is again administered intraperitoneally the same dose of either the compound to be tested (to the treated animals) or the placebo (to the control animals).
5 hours after the first administration, there is administered for the third time the same dose of either the compound to be tested (to the surviving treated animals) or the placebo (to the surviving control animals). 24 hours after the first administration the efficacy of the ligature is verified in all animals, under pentobarbital anesthesia, by section of the carotids downstream of the ligature. The number of surviving animals is recorded among both the treated animals and the control animals. For each dose of compound tested, the number of surviving animals among those treated with the compound is compared with the number of surviving animals among the control animals. The difference expresses the protective activity of the compound against the lethality induced by the simultaneous ligature of the 2 carotids. The statistical significance (P) of this difference is evaluated by the Brandt-Snedecor test.

Data set [3] is described as follows: Toxicity, LD50 after intravenous administration, mouse. To be noted: in vivo, male mouse. From the text: (§1) Table III below gives, for compounds A and B, the LD50, in mg/kg, determined on the male mouse and the male rat after intravenous administration: […]
Data set [4] is described as follows: Toxicity, LD50 after intravenous administration, rat. To be noted: in vivo, male rat.
Excerpt: as §1

In a further data set the test system is male mouse and male rat. In words: Toxicity, conclusion from LD50 in mouse and rat. It counts as in vivo. To be noted: for toxicity: intravenous, mouse and rat.
Excerpt: as §1

The conditions of data set [5]: Pharmazie, 37/11, (1982), 753-765; cited from earlier work.
Setting [6] is: intraperitoneal dose 0.32 mmol/kg.

By LD50 is commonly meant the dose expected to kill half of the subjects tested. Higher therefore signals lower toxicity.

For the compound `CCC(C(N)=O)N1CCCC1=O` (racemic) [A, Racemic alpha-ethyl-2-oxo-1-pyrrolidineacetamide, reference compound], the minimal effective dose in data set [1] stood at 320 µmol/kg. The “Number of surviving animals, treated” value in data set [1] (oral dose 0.032 mmol/kg) is 16/60; in data set [1] (oral dose 0.1 mmol/kg), 7/60; in data set [1] (oral dose 0.16 mmol/kg) it was 12/60; in data set [1] (oral dose 0.32 mmol/kg), 30/60; in data set [2] (setting [6]), 8/29; in data set [2] (intraperitoneal dose 0.64 mmol/kg) it was 21/30. The “lowest active dose (protects against lethality induced by simultaneous ligature of the two carotids, from this dose upwards)” value in data set [2] is 0.64 mmol/kg. Moreover, the LD50 in data set [3] was 1790 mg/kg; in data set [4], 1500 mg/kg. The toxicity result with male mouse and male rat was “very low toxicity”. In addition, in data set [5], the “protective activity against aggressions of the central nervous system caused by hypoxias, cerebral ischemia, etc.” value is given as “possesses a protective activity”.

As for `CC[C@@H](C(N)=O)N1CCCC1=O` [B, (S)-alpha-ethyl-2-oxo-1-pyrrolidineacetamide], the minimal effective dose in data set [1] worked out at 32 µmol/kg. Moreover, the “Number of surviving animals, treated” value in data set [1] (oral dose 0.016 mmol/kg) is given as 11/40; in data set [1] (oral dose 0.032 mmol/kg) it was 17/40; in data set [1] (oral dose 0.1 mmol/kg), 19/40; in data set [1] (oral dose 0.16 mmol/kg), 19/40; in data set [1] (oral dose 0.32 mmol/kg) it was 17/40; in data set [2] (intraperitoneal dose 0.1 mmol/kg) it was 14/29. Moreover, the results for the “Number of surviving animals, treated” value in data set [2] (intraperitoneal dose 0.16 mmol/kg) and in data set [2] (setting [6]) were 14/30 and 19/29, respectively. In addition, the “protective activity against hypoxia relative to the racemate” value in data set [1] (vs racemate (compound A)) is on record as 10 times. The “lowest active dose (protects against lethality induced by simultaneous ligature of the two carotids, from this dose upwards)” value in data set [2] came to 0.16 mmol/kg. Also, the “protective activity against ischemia relative to the racemate” value in data set [2] (vs racemate (compound A)) was 4 times. Moreover, the results for the 50% lethal dose (LD50) in data set [3] and in data set [4] were 1080 mg/kg and 1040 mg/kg, respectively. The “toxic dose compared with active dose” value in the data set on male mouse and male rat (in vivo) is “toxic dose is well above the active dose”. In addition, in the data set on male mouse and male rat, the toxicity entry is on record as “very low toxicity”.
